Results reported in ChEMBL document CHEMBL5036305, “Modulation of the Passive Permeability of Semipeptidic Macrocycles: N- and C-Methylations Fine-Tune Conformation and Properties” (J Med Chem, 2021).

Assay: Apparent permeability across apical to basolateral side in human Caco-2 cells measured after 60 to 120 mins
Assay type: ADME, cell-based
Settings: time 60-120 min

For CC(C)CN1CC(=O)N[C@@H](Cc2ccccc2)C(=O)NCCC[C@@H](C)C(=O)N[C@@H](C)C1=O, the permeability was “Permeable”.
